ChEMBL document CHEMBL1201862, “PubChem BioAssay data set” (2004)
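Where inhibition never reached the appropriate level, the endpoint shown equals the highest concentration tested. Otherwise, values were interpolated linearly from a five-concentration, 48-hour dose response in 96-well plates. Here, GI50 denotes the concentration required for 50% inhibition of growth.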 Calls of active or inactive are those of the source. Cut-off read from the data, not from the text of the source: active = GI50 up to about 1.1 µM and inactive = higher.

What was measured:
Assay in all cases: NCI-60 cell line screen, 48 h
SW-620 = system: SW-620
UO-31 = system: UO-31
Malme-3M = system: Malme-3M
DMS-273 = system: DMS-273
786-0 = system: 786-0
M19-MEL = system: M19-MEL
OVCAR-3 = system: OVCAR-3
ACHN = system: ACHN
NCI-H23 = system: NCI-H23
SK-MEL-28 = system: SK-MEL-28
UACC-257 = system: UACC-257
RXF 393 = system: RXF 393
M14 = system: M14
HT-29 = system: HT-29
RPMI-8226 = system: RPMI-8226
UACC-62 = system: UACC-62
SK-OV-3 = system: SK-OV-3
DLD-1 = system: DLD-1
SNB-75 = system: SNB-75
MOLT-4 = system: MOLT-4
KM12 = system: KM12
HOP-62 = system: HOP-62
HOP-92 = system: HOP-92
IGROV-1 = system: IGROV-1
NCI-H460 = system: NCI-H460
CCRF-CEM = system: CCRF-CEM
SF-268 = system: SF-268
SNB-78 = system: SNB-78
U-251 = system: U-251
SNB-19 = system: SNB-19
SF-539 = system: SF-539
COLO 205 = system: COLO 205
SK-MEL-5 = system: SK-MEL-5
NCI-H226 = system: NCI-H226
NCI-H522 = system: NCI-H522
CAKI-1 = system: CAKI-1
EKVX = system: EKVX
DMS-114 = system: DMS-114
HCC 2998 = system: HCC 2998
HCT-116 = system: HCT-116
SR = system: SR
OVCAR-4 = system: OVCAR-4
TK-10 = system: TK-10
XF498 = system: XF498
A549 = system: A549
HCT-15 = system: HCT-15
SF-295 = system: SF-295
K562 = system: K562
HL-60 = system: HL-60
OVCAR-5 = system: OVCAR-5
KM-20L2 = system: KM-20L2
LOX IMVI = system: LOX IMVI
LXFL 529 = system: LXFL 529
SK-MEL-2 = system: SK-MEL-2
HOP-18 = system: HOP-18
A498 = system: A498
SN12C = system: SN12C
OVCAR-8 = system: OVCAR-8

CC(=O)O[C@]1(C(C)=O)CC[C@H]2[C@@H]3C[C@H](C)C4=CC(=O)C=C[C@]4(C)[C@@]3(F)[C@@H](O)C[C@@]21C [FLUOROMETHOLONE ACETATE]
GI50 (SW-620): 53.2 µM (inactive) | GI50 (UO-31): 17.1 µM (inactive) | GI50 (Malme-3M): 24.9 µM (inactive) | GI50 (DMS-273): 41.7 µM (inactive) | GI50 (786-0): > 100 µM (inactive) | GI50 (M19-MEL): > 100 µM (inactive) | GI50 (OVCAR-3): > 100 µM (inactive) | GI50 (ACHN): 56.5 µM (inactive) | GI50 (NCI-H23): 63.8 µM (inactive) | GI50 (SK-MEL-28): 86.3 µM (inactive) | GI50 (UACC-257): 31.1 µM (inactive) | GI50 (RXF 393): 23.7 µM (inactive) | GI50 (M14): 48.3 µM (inactive) | GI50 (HT-29): 56.1 µM (inactive) | GI50 (RPMI-8226): 11.9 µM (inactive) | GI50 (UACC-62): 23.7 µM (inactive) | GI50 (SK-OV-3): < 0.01 µM (active) | GI50 (DLD-1): 94.6 µM (inactive) | GI50 (SNB-75): > 100 µM (inactive) | GI50 (MOLT-4): 25.2 µM (inactive) | GI50 (KM12): > 100 µM (inactive) | GI50 (HOP-62): > 100 µM (inactive) | GI50 (HOP-92): 85.7 µM (inactive) | GI50 (IGROV-1): 69.5 µM (inactive) | GI50 (NCI-H460): 76.9 µM (inactive) | GI50 (CCRF-CEM): 0.213 µM (active) | GI50 (SF-268): 36.2 µM (inactive) | GI50 (SNB-78): 72.6 µM (inactive) | GI50 (U-251): 87.7 µM (inactive) | GI50 (SNB-19): > 100 µM (inactive) | GI50 (SF-539): > 100 µM (inactive) | GI50 (COLO 205): > 100 µM (inactive) | GI50 (SK-MEL-5): 28.9 µM (inactive) | GI50 (NCI-H226): 22.2 µM (inactive) | GI50 (NCI-H522): 62.1 µM (inactive) | GI50 (CAKI-1): 96.4 µM (inactive) | GI50 (EKVX): > 100 µM (inactive) | GI50 (DMS-114): 53.6 µM (inactive) | GI50 (HCC 2998): > 100 µM (inactive) | GI50 (HCT-116): > 100 µM (inactive) | GI50 (SR): 24.7 µM (inactive) | GI50 (OVCAR-4): 27.4 µM (inactive) | GI50 (TK-10): 67 µM (inactive) | GI50 (XF498): 38.3 µM (inactive) | GI50 (A549): 43.2 µM (inactive) | GI50 (HCT-15): 19.6 µM | GI50 (SF-295): 66.7 µM (inactive) | GI50 (K562): 48.1 µM (inactive) | GI50 (HL-60): 37.6 µM (inactive) | GI50 (OVCAR-5): 0.149 µM (active) | GI50 (KM-20L2): > 100 µM (inactive) | GI50 (LOX IMVI): 63.5 µM (inactive)

COCCOCOC(CCCCO)c1cc(C)c(O[Si](C)(C)C(C)(C)C)c(C)c1 (stereo not given)
GI50 (SW-620): 7.31 µM (inactive) | GI50 (UO-31): 4.11 µM (inactive) | GI50 (Malme-3M): 2.47 µM (inactive) | GI50 (786-0): 11.1 µM (inactive) | GI50 (M19-MEL): 5.11 µM (inactive) | GI50 (OVCAR-3): 5.83 µM (inactive) | GI50 (LXFL 529): 10.4 µM (inactive) | GI50 (ACHN): 7.62 µM (inactive) | GI50 (NCI-H23): 5.55 µM (inactive) | GI50 (SK-MEL-28): 12.3 µM (inactive) | GI50 (UACC-257): 3.01 µM (inactive) | GI50 (RXF 393): 2.26 µM (inactive) | GI50 (M14): 10.3 µM (inactive) | GI50 (RPMI-8226): 2.08 µM (inactive) | GI50 (UACC-62): 12.2 µM (inactive) | GI50 (SK-MEL-2): 8.89 µM (inactive) | GI50 (SK-OV-3): 17.6 µM (inactive) | GI50 (SNB-75): 10.6 µM (inactive) | GI50 (MOLT-4): 2.86 µM (inactive) | GI50 (KM12): 4.59 µM (inactive) | GI50 (HOP-62): 10.8 µM (inactive) | GI50 (IGROV-1): 12.2 µM (inactive) | GI50 (NCI-H460): 5.24 µM (inactive) | GI50 (CCRF-CEM): 4.39 µM (inactive) | GI50 (SF-268): 6.05 µM (inactive) | GI50 (U-251): 10.8 µM (inactive) | GI50 (SNB-19): 6.35 µM (inactive) | GI50 (SF-539): 12.4 µM (inactive) | GI50 (COLO 205): 7.71 µM (inactive) | GI50 (SK-MEL-5): 2.64 µM (inactive) | GI50 (NCI-H226): 2.41 µM (inactive) | GI50 (NCI-H522): 1.64 µM (inactive) | GI50 (HOP-18): 16.9 µM (inactive) | GI50 (EKVX): 8.17 µM (inactive) | GI50 (A498): 12.4 µM (inactive) | GI50 (DMS-114): 2.47 µM (inactive) | GI50 (SN12C): 2.69 µM (inactive) | GI50 (HCC 2998): 7.03 µM (inactive) | GI50 (TK-10): 13.4 µM (inactive) | GI50 (A549): 3.68 µM (inactive) | GI50 (HCT-15): 7.36 µM | GI50 (SF-295): 3.97 µM (inactive) | GI50 (OVCAR-8): 5.01 µM (inactive) | GI50 (K562): 3.22 µM (inactive) | GI50 (HL-60): 1.59 µM (inactive) | GI50 (OVCAR-5): 13.7 µM (inactive) | GI50 (KM-20L2): 4.72 µM (inactive) | GI50 (LOX IMVI): 5.66 µM (inactive)

COC1OC(COCc2ccc(Cl)cc2)C(OCc2ccc(Cl)cc2)C1N=[N+]=[N-] (stereo not given)
GI50 (SW-620): > 100 µM (inactive) | GI50 (UO-31): > 100 µM (inactive) | GI50 (Malme-3M): > 100 µM (inactive) | GI50 (786-0): 4.7 µM (inactive) | GI50 (OVCAR-3): 47.8 µM (inactive) | GI50 (LXFL 529): 95.5 µM (inactive) | GI50 (ACHN): > 100 µM (inactive) | GI50 (NCI-H23): 45.1 µM (inactive) | GI50 (SK-MEL-28): > 100 µM (inactive) | GI50 (UACC-257): 81.7 µM (inactive) | GI50 (RXF 393): 27.1 µM (inactive) | GI50 (M14): > 100 µM (inactive) | GI50 (HT-29): > 100 µM (inactive) | GI50 (RPMI-8226): 19.4 µM (inactive) | GI50 (UACC-62): 15.3 µM (inactive) | GI50 (SK-MEL-2): > 100 µM (inactive) | GI50 (SK-OV-3): > 100 µM (inactive) | GI50 (SNB-75): 73.5 µM (inactive) | GI50 (MOLT-4): 42.2 µM (inactive) | GI50 (KM12): > 100 µM (inactive) | GI50 (HOP-92): 97.1 µM (inactive) | GI50 (IGROV-1): 72.3 µM (inactive) | GI50 (NCI-H460): > 100 µM (inactive) | GI50 (SNB-78): > 100 µM (inactive) | GI50 (U-251): > 100 µM (inactive) | GI50 (SNB-19): > 100 µM (inactive) | GI50 (COLO 205): > 100 µM (inactive) | GI50 (SK-MEL-5): 44 µM (inactive) | GI50 (NCI-H226): > 100 µM (inactive) | GI50 (NCI-H522): 85.1 µM (inactive) | GI50 (HOP-18): > 100 µM (inactive) | GI50 (CAKI-1): > 100 µM (inactive) | GI50 (EKVX): > 100 µM (inactive) | GI50 (DMS-114): 24.2 µM (inactive) | GI50 (SN12C): > 100 µM (inactive) | GI50 (HCC 2998): > 100 µM (inactive) | GI50 (HCT-116): > 100 µM (inactive) | GI50 (SR): 36.2 µM (inactive) | GI50 (OVCAR-4): > 100 µM (inactive) | GI50 (TK-10): > 100 µM (inactive) | GI50 (XF498): > 100 µM (inactive) | GI50 (A549): 4.32 µM (inactive) | GI50 (HCT-15): > 100 µM | GI50 (SF-295): > 100 µM (inactive) | GI50 (OVCAR-8): > 100 µM (inactive) | GI50 (K562): 49.8 µM (inactive) | GI50 (OVCAR-5): > 100 µM (inactive) | GI50 (KM-20L2): 8 µM (inactive)

COc1ccc2c([nH]c3cc(O)c(C)cc32)c1CC=C(C)C
GI50 (OVCAR-3): 5.32 µM (inactive) | GI50 (SK-MEL-28): > 25 µM (inactive) | GI50 (HT-29): 7.24 µM (inactive) | GI50 (RPMI-8226): 8.38 µM (inactive) | GI50 (SK-MEL-2): > 25 µM (inactive) | GI50 (SK-OV-3): > 25 µM (inactive) | GI50 (IGROV-1): 23.1 µM (inactive) | GI50 (SNB-78): 11.5 µM (inactive) | GI50 (SNB-19): > 25 µM (inactive) | GI50 (COLO 205): > 25 µM (inactive) | GI50 (NCI-H226): > 25 µM (inactive) | GI50 (DMS-114): 20.9 µM (inactive) | GI50 (SN12C): 5.04 µM (inactive) | GI50 (OVCAR-4): 22.5 µM (inactive) | GI50 (XF498): > 25 µM (inactive) | GI50 (OVCAR-8): 4.42 µM (inactive) | GI50 (OVCAR-5): > 25 µM (inactive)
